US10675360B2 (MADRIGAL PHARMACEUTICALS, INC., priority 2014, dated 2020)
Read-outs that look alike come from different tables or passages of the source.

How the values were obtained:
[1] = Artificial membrane permeability assay (PAMPA); format: in vitro ADME; conditions: 5 h incubation, first table
Description: In order to test the ability SDC-TRAP molecules of the invention to enter cells, an artificial membrane permeability assay (“PAMPA”) was used. […] LC/MS was used in conjunction with PAMPA assays to determine the ability of the SDC-TRAP molecules of the invention to permeate cells.
Pre-coated PAMPA plates were warmed to room temperature for at least 30 minutes prior to adding assay components.
Stock solutions were prepared with the SDC-TRAP molecules to be tested. In order to make a working solution, either 50 μL of 100 μM Stock in DMSO+950 μL of PBS or 50 μL of 200 μM stock was added to 96 deep well plate, resulting in a 5 μM final concentration or a 10 μM final concentration, respectively. 300 μL of the working solution containing each compound to be tested was added to the appropriate well of a donor PAMPA plate. 200 μL of PBS was added into the corresponding wells of an acceptor PAMPA plates.
The acceptor plate was lowered onto the donor plate and allowed to incubate for five hours. After five hours, a 50 μL aliquot was removed from each well of each plate and added into a new 96 deep-well plate.
100 μL of methanol containing an internal standard was added to each aliquot and analyzed by LC/MS. The internal standard was 150 ng/ml SDC-TRAP-0002.
In order to calculate the permeability for each SDC-TRAP molecule and the control molecules, the following formula was used:

[2] = Stability in mouse plasma; format: in vitro ADME; conditions: for % Remaining: 1 h; for Mouse (10 μM) % Remaining 1 h (37° C.) §: § not explained
[3] = test system: H 3211 NSLC cells; test: IC50 of continuous and pulsed exposure to SDC-TRAPs; format: cell-based
[4] = Stability in cell culture media; conditions: § not explained
Description: 98 μL of DMEM+10% FBS, +1% P/S, +1.5 g/L sodium bicarbonate cell culture media was mixed with 2 μL of DMSO and aliquotted into 96-well plates at 250 μL per 0, 1, 2, and 18 hour time point.
3×50 μL media samples in 96 were held in 96-well plates at −80° C. until the last time point was extracted. 200 μL of methanol containing IS was added and mixed by vortex at 1500 rpm for 1.5 minutes at room temperature. The samples were centrifuged at 4400 rpm for 10 minutes at 8° C.

[5] = Tissue distribution of SDC-TRAPs in tumor-bearing mice (plasma, tumor, heart); conditions: mouse, in vivo; for Kp: tissue distribution of SDC-TRAP-0076, read-out: Tumor/Plasma Ratio
Description: Using the 10 mM stock solutions of the SDC-TRAP molecule and its Hsp90i binding moiety and effector moiety in DMSO, spiking solutions were prepared at 0.025, 0.05, 0.1, 0.5, 1, 5, 10, 50, 100, 250, and 500 μM in DMSO. 5 μL of each spiking solution was added to a 96-deep well plate.
Quality control standards were prepared from 5 μL of 0.1, 1, and 10 μM calibration standard spiking solution added in triplicate into 96-deep well plate and adding 50 μL of matrix (plasma or homogenized tumor).
To prepare test samples, test plasma was diluted as needed using blank plasma. Tumor samples were pulverized in liquid nitrogen, weighed, and homogenized in PBS at 5× volume to sample weight. 50 μL of unknown plasma or homogenized tumor sample was mixed with 5 μL of DMSO. The samples were extracted by precipitating calibration standards, QC standards, and unknown samples with 200 μL of internal standard solution. The samples were mixed by vortex at room temperature for approximately 1.5 minutes, then centrifuge at 2-8° C. 150 μL of supernatant was collected and 25 μL of water added. Samples were mixed and analyzed by LC-MS/MS.
Samples of plasma, heart and tumor were excised from a euthanized mouse, homogenized in PBS at 5 times tissue weight and diluted in 5 μL DMSO/50 μL sample. Prior to analysis, 55 μL samples and calibration standards were precipitated in 200 μL methanol in 96-well plates. Samples were mixed on a vortex mixer for 1.5 minutes at 1500 rpm at room temperature, then centrifuged at 4400 rpm for 10 minutes at 8° C. 150 μL of each supernatant was transferred to a well of a new 96-well plate, and 25 μL of water was added and mixed with the sample. […] For the analysis of samples from female SCID mice, a gradient of solvent A (water/0.1% formic acid) and B (acetonitrile/0.1% formic acid) was used as in Table A below.

[6] = target: T1, Hsp90α (Homo sapiens, UniProt P07900); test: Hsp90α binding assay (fluorescence polarization, FITC-labeled geldanamycin)
T1 construct: purchased BPS Bioscience 50294
Description: An Hsp90^α fluorescence assay kit from BPS Bioscience (Cat #50294) containing Hsp90 recombinant enzyme, FITC-labeled geldanamycin, assay buffer and a low binding 384-well plate was used to assay Hsp90^α binding. Dithiothreitol (DTT) (Cat # D0643) and bovine serum albumin (BSA) (Cat # A2153) were obtained from Sigma-Aldrich. Fluorescence polarization was measured using a PHERAstar microplate reader (BMG LABTECH GmbH, Ortenberg, Germany.)
The compounds were diluted to 1 mM in DMSO and loaded into a compound dilution plate to make 3-fold dilutions yielding a total of 8 concentrations. 1 μL of compound was transferred from the dilution plate to the low binding assay plate provided in the assay kit. 5 mL of Hsp90^α binding solution was prepared having a final concentration of 7 ng/μL Hsp90^α, 5 nM FITC-labeled geldanamycin, 2 mM DTT and 0.1 mg/mL BSA. 49 μL of binding solution was added to each microplate well, incubated at room temperature for 1 hour, then read using the PHERAstar microplate reader. The high control sample contained no compound plus Hsp90^α; the low control sample contained no compound and no Hsp90^α. […] The IC50 was calculated using GraphPad Prism 4 software.

[7] = test system: MCF-7 breast cancer cells; test: Mouse xenograft efficacy in an MCF-7 breast cancer model; format: in vivo; conditions: FIG. 8
Description: MCF-7 breast cancer cells were purchased from ATCC. […] Fetal bovine serum was then added to the medium. The final concentration of fetal bovine serum was 10%. Cells were cultured at 37° C. and 5% CO2.
Mice that were not put on treatment were euthanized. Animals were sourced through CRL (Wilmington, Mass.).

[8] = Tissue distribution of ganetespib in female CD-1 nu/nu mice bearing RERF human NSCLC xenografts; format: in vivo, mouse; conditions: ganetespib 50 mg/kg IV
Description: To confirm the distribution of ganetespib in blood, livers, kidneys, brains, hearts, lungs and tumors after IV administration of ganetespib to female CD-1 nu/nu mice bearing RERF human NSCLC xenografts, and to examine metabolic profiles of ganetespib in plasma, red blood cells, and above tissues.
Animals: female CD-1 nu/nu mice bearing RERF human NSCLC xenografts (N=3/group)
Formulation: 10% DMSO, 18% Cremophor RH40, 3.6% dextrose solution (DRD)
Bleeding time points: 5 min, 6, 24 hr
Collected tissues: blood (plasma and red blood cells (RBC)), liver, kidneys, brain, heart, lung, tumor
Protein precipitation: 50 μL of 10 times diluted plasma or RBC+150 μL ACN (10 mM NH4OAc), vortexed and centrifuged at 10000 rpm for 8 min; 150 μL supernatant+150 μL water (10 mM NH4OAc)
Protein precipitation: 100 μL homogenized tissue (1:3 tissue: PBS buffer)+100 μL ACN (10 mM NH4OAc), vortexed and centrifuged at 10000 rpm for 8 min

[9] = 72 h, read-out: IC50, 72 h-continuous, H 3211 NSLC cells, 7.5 × 10^3 cells/well, 1st of 3 columns

SMILES: CC(C)c1cc(-c2nnc(O)n2-c2ccc3c(ccn3CCNC(=O)CCCCCNC(=O)CCCC[C@H]3SCC4NC(=O)NC43)c2)c(O)cc1O (stereo in doubt) [SDC-TRAP-0234, N-(2-(5-(3-(2,4-dihydroxy-5-isopropylphenyl)-5-hydroxy-4H-1,2,4-triazol-4-yl)-1H-indol-1-yl)ethyl)-6-(5-((3aR,4R,6aS)-2-oxohexahydro-1H-thieno[3,4-d]imidazol-4-yl)pentanamido)hexanamide]
- Papp at 5 h [1]: 0.0123 ×10⁻⁶ cm/s

SMILES: CCc1c2c(nc3ccc(OCC(=O)N(C)CCOCCn4ccc5cc(-n6c(O)nnc6-c6cc(C(C)C)c(O)cc6O)ccc54)cc13)-c1cc3c(c(=O)n1C2)COC(=O)C3(O)CC (stereo not drawn) [SDC-TRAP-0028, 2-((4,11-diethyl-4-hydroxy-3,14-dioxo-3,4,12,14-tetrahydro-1H-pyrano[3′,4′:6,7]indolizino[1,2-b]quinolin-9-yl)oxy)-N-(2-(2-(5-(3-(2,4-dihydroxy-5-isopropylphenyl)-5-hydroxy-4H-1,2,4-triazol-4-yl)-1H-indol-1-yl)ethoxy)ethyl)-N-methylacetamide]
- % Remaining ([2]; mouse, plasma, 10 μM): 41%
- IC50 ([3]; 1 h, read-out: IC50, 1 h-pulse/71 h-compound free, H 3211 NSLC cells, 7.5 × 10^3 cells/well, 1st of 2 columns): > 3000 nM
- IC50 ([3]; 1 h, read-out: IC50, 1 h-pulse/71 h-compound free, H 3211 NSLC cells, 7.5 × 10^3 cells/well, 2nd of 2 columns): > 3000 nM
- IC50 [3, 9]: 468 nM
- IC50 ([3]; 72 h, read-out: IC50, 72 h-continuous, H 3211 NSLC cells, 7.5 × 10^3 cells/well, 2nd of 3 columns): 1760 nM
- IC50 ([3]; 72 h, read-out: IC50, 72 h-continuous, H 3211 NSLC cells, 7.5 × 10^3 cells/well, 3rd of 3 columns): 499 nM

SMILES: CCc1c2c(nc3ccc(OC(=O)N(C)CCOCCn4ccc5cc(-n6c(O)nnc6-c6cc(C(C)C)c(O)cc6O)ccc54)cc13)-c1cc3c(c(=O)n1C2)COC(=O)C3(O)CC (stereo not drawn) [SDC-TRAP-0029, 4,11-diethyl-4-hydroxy-3,14-dioxo-3,4,12,14-tetrahydro-1H-pyrano[3′,4′:6,7]indolizino[1,2-b]quinolin-9-yl (2-(2-(5-(3-(2,4-dihydroxy-5-isopropylphenyl)-5-hydroxy-4H-1,2,4-triazol-4-yl)-1H-indol-1-yl)ethoxy)ethyl)(methyl)carbamate]
- Media (5 μM) % Remaining 1 h (37° C.) § [4]: 43%
- Mouse (10 μM) % Remaining 1 h (37° C.) § ([2]; mouse plasma, 10 μM): 44%
- % Remaining ([2]; mouse plasma, 37° C.): 47%
- IC50 [3, 9]: 79 nM

SMILES: CCc1c2c(nc3ccc(OC(=O)N4CCN(c5ccc(-n6c(O)nnc6-c6cc(C(C)C)c(O)cc6O)cc5)CC4)cc13)-c1cc3c(c(=O)n1C2)COC(=O)C3(O)CC (stereo not drawn) [SDC-TRAP-0045, 4,11-diethyl-4-hydroxy-3,14-dioxo-3,4,12,14-tetrahydro-1H-pyrano[3′,4′:6,7]indolizino[1,2-b]quinolin-9-yl 4-(4-(3-(2,4-dihydroxy-5-isopropylphenyl)-5-hydroxy-4H-1,2,4-triazol-4-yl)phenyl)piperazine-1-carboxylate]
- Media (5 μM) % Remaining 1 h (37° C.) § [4]: 72%
- Mouse (10 μM) % Remaining 1 h (37° C.) § ([2]; mouse plasma, 10 μM): 34%
- % Remaining ([2]; mouse plasma, 37° C.): 45%

SMILES: CCc1c2c(nc3ccc(OC(=O)N4CCN(Cc5ccc(-n6c(O)nnc6-c6cc(C(C)C)c(O)cc6O)cc5)CC4)cc13)-c1cc3c(c(=O)n1C2)COC(=O)C3(O)CC (stereo not drawn) [SDC-TRAP-0046, 4,11-diethyl-4-hydroxy-3,14-dioxo-3,4,12,14-tetrahydro-1H-pyrano[3′,4′:6,7]indolizino[1,2-b]quinolin-9-yl 4-(4-(3-(2,4-dihydroxy-5-isopropylphenyl)-5-hydroxy-4H-1,2,4-triazol-4-yl)benzyl)piperazine-1-carboxylate]
- Media (5 μM) % Remaining 1 h (37° C.) § [4]: 62%
- Mouse (10 μM) % Remaining 1 h (37° C.) § ([2]; mouse plasma, 10 μM): 50%
- % Remaining ([2]; mouse plasma, 37° C.): 52%

SMILES: CCc1c2c(nc3ccc(OC(=O)N4CCC(CCn5ccc6cc(-n7c(O)nnc7-c7cc(C(C)C)c(O)cc7O)ccc65)CC4)cc13)-c1cc3c(c(=O)n1C2)COC(=O)[C@]3(O)CC [SDC-TRAP-0063, 4,11-diethyl-4-hydroxy-3,14-dioxo-3,4,12,14-tetrahydro-1H-pyrano[3′,4′:6,7]indolizino[1,2-b]quinolin-9-yl 4-(2-(5-(3-(2,4-dihydroxy-5-isopropylphenyl)-5-hydroxy-4H-1,2,4-triazol-4-yl)-1H-indol-1-yl)ethyl)piperidine-1-carboxylate]
- % Remaining ([2]; mouse, plasma, 10 μM): 11.1%
- Selective targeting of tumor [5]: selectively targets and accumulates in tumor cells
- EC50 [6]: 158 nM
- Suppression of increase in tumor volume, higher versus lower dose ([7]; 150 mg/kg/1×wk compared to 100 mg/kg/1×wk): appears to prolong the suppression of increase in tumor volume compared to a lower dose
- Tumor growth suppression versus irinotecan alone or ganetespib plus irinotecan ([7]; 150 or 100 mg/kg/1×wk): greater tumor growth suppression than effector moiety irinotecan alone

SMILES: CCNC(=O)c1nnc(-c2cc(C(C)C)c(O)cc2O)n1-c1ccc(CN2CCC(C(=O)N3CCC(C(=O)OC4(CC)C(=O)OCc5c4cc4n(c5=O)Cc5c-4nc4ccc(O)cc4c5CC)CC3)CC2)cc1 (stereo not drawn) [SDC-TRAP-0076, 4,11-diethyl-9-hydroxy-3,14-dioxo-3,4,12,14-tetrahydro-1H-pyrano[3′,4′:6,7]indolizino[1,2-b]quinolin-4-yl 1-(1-(4-(3-(2,4-dihydroxy-5-isopropylphenyl)-5-(ethylcarbamoyl)-4H-1,2,4-triazol-4-0)benzyl)piperidine-4-carbonyl)piperidine-4-carboxylate]
- % Remaining ([2]; mouse plasma, 37° C.): 96%
- Kp ([5]; 1 h): 0.17
- Kp ([5]; 6 h): 2.25
- Kp ([5]; 24 h): 20.4
- Kp ([5]; 48 h): 6.85
- Kp ([5]; […]): 0.01

SMILES: CC(C)c1cc(-c2nnc(O)n2-c2ccc(CC3CCN(CC(=O)Nc4cccc5c4CN(C4CCC(=O)NC4=O)C5=O)CC3)cc2)c(O)cc1O (stereo not drawn) [SDC-TRAP-0116, 2-(4-(4-(3-(2,4-dihydroxy-5-isopropylphenyl)-5-hydroxy-4H-1,2,4-triazol-4-yl)benzyl)piperidin-1-yl)-N-(2-(2,6-dioxopiperidin-3-yl)-1-oxoisoindolin-4-yl) acetamide]
- % Remaining ([2]; mouse, plasma, 10 μM): 91.1%
- Kp at 48 h [5]: 4.65

SMILES: CCc1c2c(nc3ccc(OC(=O)N(C)C4CCN(C(=O)CCn5ccc6cc(-n7c(O)nnc7-c7cc(C(C)C)c(O)cc7O)ccc65)CC4)cc13)-c1cc3c(c(=O)n1C2)COC(=O)C3(O)CC (stereo not drawn) [SDC-TRAP-0184, 4,11-diethyl-4-hydroxy-3,14-dioxo-3,4,12,14-tetrahydro-1H-pyrano[3′,4′:6,7]indolizino[1,2-b]quinolin-9-yl (1-(3-(5-(3-(2,4-dihydroxy-5-isopropylphenyl)-5-hydroxy-4H-1,2,4-triazol-4-yl)-1H-indol-1-yl)propanoyl)piperidin-4-yl)(methyl)carbamate]
- % Remaining ([2]; mouse plasma, 37° C.): 18.0%
- EC50 [6]: 86.6 nM

SMILES: CCc1c2c(nc3ccc(O)cc13)-c1cc3c(c(=O)n1C2)COC(=O)[C@]3(O)CC [SN-38]
- Plasma Conc. ([5]; 1 h): 4.34 µM
- Tumor/Plasma Ratio ([5]; 1 h): 0.11
- concentration at 1 h ([5]; Plasma Conc.): 8.6 µM
- Kp at 1 h ([5]; Tumor/Plasma Ratio): 0.07

SMILES: CC(C)c1cc(-c2n[nH]c(=O)n2-c2ccc3c(ccn3C)c2)c(O)cc1O [ganetespib]
- Concentration in tumor ([8]; 5 min): 2.35 µM
- Concentration in plasma ([8]; 24 hr): <LLOQ
- Persistence in tumor versus plasma and other tissues ([8]; up to 24 hr): persist longer in tumor than in plasma or any other tissues studied
